In patent US12011447B2, “Pharmaceutical composition for treating thyroid cancer comprising tyrosine kinase activity inhibitor as active ingredient” (Kyungpook National University Industry-Academic Cooperation …, priority 2017, dated 2024):

Assays:
8505C cells = test: In vitro 125I uptake assay; type: cell-based, human; conditions: anaplastic thyroid cancer cells
Protocol: 8505C cells (1.25×10^5) were seeded and incubated in a 24-well plate for 24 hours, and then treated with TKI-0266 and further incubated for 24 hours. Thereafter, the medium was removed, and the cells were washed with bHBSS (Hank's balanced salt solution containing 0.5% BSA). The cells were incubated with 500 μl of bHBSS, 3.7 kBq carrier-free ^125I (Perkin-Elmer), and 10 μmol/L sodium iodide (specific activity of 740 MBq/mmol) at 37° C. for 30 minutes. Thereafter, the cells were washed twice with cold bHBSS and lysed by adding 500 μL of 2% SDS solution thereto. Radioactivity was measured using a Cobra II gamma-counter (Canberra Packard, Canada). The ^125I uptake values were normalized by comparing the amount of total protein determined by BCA protein assay kit.

[1] = tested on: anaplastic thyroid cancer xenograft (8505C-PNIS-PCMV); test: Tumor growth inhibition in xenograft mice (tumor size, R-luc BLI); type: in vivo, Balb/c nude mice; conditions: single agent administration
Protocol: Female Balb/c nude mice, 5.5-week old with an average weight of 18.9±0.37 g (mean±standard deviation [SD]), were purchased (Hamamatsu, Shizuoka, Japan). The mice were acclimated under specific pathogen-free conditions for one week before starting the experiment, and were maintained at a temperature of 20 to 25° C. and a relative humidity of 40 to 70%. To establish anaplastic thyroid cancer xenograft mouse models, 8505C-PNIS-PCMV s (5×10^6) were mixed with Matrigel (Corning) at a ratio of 1:1 and injected subcutaneously into the right flank region of each mouse.
In addition, in order to evaluate the effect of TKI-0266 administration on the treatment of thyroid cancer, mice for use in the experiment were divided into four groups (n=5): the vehicle group; the ^131I-administered group (injected intraperitoneally with 1 mCi Na-^131I on day 2 of the experiment; the TKI-0266-administered group (injected intraperitoneally with 50 mg/kg of TKI-0266 for 5 days); and the group co-administered with ^131I and TKI-0266 (injected intraperitoneally with 50 mg/kg of TKI-0266 for 5 days, and injected intravenously with 1 mCi Na-^131I on day 2; n=5). To measure the degree of tumor growth, h-coelenterazine (15 μg/ml) was administered to the mice by intravenous injection, and then the R-luc activity was monitored by BLI every 5 days.

| Structure (SMILES) | iodine uptake on treatment with NIS inhibitor (8505C cells) | tumor size on days 6 and 11 [1] |
| --- | --- | --- |
| [K+].[O-][Cl+3]([O-])([O-])[O-] [KCIO4, reference compound] | completely blocked | – |
| [131I-].[Na+] [^131I, Na-^131I, reference compound] | – | continuous increase |
